The structures appear in SMILES notation. Structures can show the parent of a compound that is named as a salt.

One assay deals with T1, catalytic domain of human PARP14 (residues 1611 to 1801) with NanoLuc tag (Homo sapiens, UniProt Q460N5).
T1 construct: expressed in transfected cells; host or cells: HEK-293T cells (ATCC), pcDNA3.1(-) vector
T1 sequence (Q460N5 1611-1801): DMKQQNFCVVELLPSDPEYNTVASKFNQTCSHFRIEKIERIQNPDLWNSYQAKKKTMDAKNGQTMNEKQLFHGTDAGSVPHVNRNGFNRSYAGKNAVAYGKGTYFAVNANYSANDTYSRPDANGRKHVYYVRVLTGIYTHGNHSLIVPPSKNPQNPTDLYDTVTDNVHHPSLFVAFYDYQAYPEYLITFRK
Nature of the assay: NanoLuc assay for the degradation of PARP14 (NanoLuc-tagged PARP14 overexpressed in HEK-293T cells, 2 hours). Type of assay: cell-based. Conditions: Assay A (Example A): NanoLuc-tagged PARP14 degradation in HEK-293T cells, read-out: DC50. On the procedure:
The insert also contained a NanoLuc tag on the N terminus of the PARP14 protein.
Degradation of PARP14 protein was assessed using measurement of the NanoLuc tag as proxy for the PARP14 protein. […] Plasmid DNA was diluted in empty vector DNA then added to 1.163 mL of phenol red free OptiMEM (Thermo Fisher). Plasmid DNA concentrations used in each assay described in Table 1. The plasmid DNA was mixed with 78.5 μL of Fugene HD (Promega) and allowed to incubate 5 minutes.
The transfection was incubated for 24 hrs at 37 degrees in an incubator supplemented with 5% CO2. The cells were then trypsinized and brought up in phenol red free OptiMEM media. […] 40 nL of a dose response curve diluted in DMSO of each test compound was added to the cell plate using a Mosquito (TTP Labtech) and the plate was incubated at 37° C. for 2 hours. Assay plate was brought to room temperature then 20 μL per well of NanoGlo (Promega) was added to the plate. Luminescence was measured on an Envision (Perkin Elmer).
The average DMSO was calculated from 32 wells containing 0.1% DMSO only in columns 12 and 24 of the assay plate. The % of DMSO values were calculated as described below: […]
The % of DMSO values were plotted as a function of compound concentration and the following 4-parameter fit was applied to derive the DC50 values:
where top, bottom, and Hill Coefficient are allowed to float. Y is the % of DMSO and X is the compound concentration
DC50 data for the Example compounds is provided below in Table 2 (“+” is <0.1 μM; “++” is ≥0.1 μM and <1 μM; and “+++” is ≥1 μM).
As usually defined, the DC50 is the concentration giving 50% degradation. In the case of `O=C1CCC(Nc2ccc(N3CC(N4CCC(COc5cc(F)c6c(=O)[nH]c(CSC7CCOCC7)nc6c5)C(F)(F)C4)C3)cc2)C(=O)N1` (centres unmarked) [Example 52, 3-((4-(3-(3,3-difluoro-4-(((5-fluoro-4-oxo-2-(((tetrahydro-2H-pyran-4-yl)thio)methyl)-3,4-dihydroquinazolin-7-yl)oxy)methyl)piperidin-1-yl)azetidin-1-yl)phenyl)amino)piperidine-2,6-dione formate salt], the DC50 is less than 0.1 µM.
With `O=C(CN1CCC(COc2cc(F)c3c(=O)[nH]c(CSC4CCOCC4)nc3c2)CC1)NCCCCCCNc1cccc2c1C(=O)N(C1CCC(=O)NC1=O)C2=O` (centres unmarked) [Example 1, N-(6-((2-(2,6-dioxopiperidin-3-yl)-1,3-dioxoisoindolin-4-yl)amino)hexyl)-2-(4-(((5-fluoro-4-oxo-2-(((tetrahydro-2H-pyran-4-yl)thio)methyl)-3,4-dihydroquinazolin-7-yl)oxy)methyl)piperidin-1-yl)acetamide], the 50% degradation concentration (DC50) was less than 0.1 µM.
Still for that read-out and setting: to `O=C1CCC(N2C(=O)c3cccc(N4CC(CN5CCC(COc6cc(F)c7c(=O)[nH]c(CSC8CCOCC8)nc7c6)CC5)C4)c3C2=O)C(=O)N1` (centres unmarked) [Example 37, 2-(2,6-dioxopiperidin-3-yl)-4-(3-((4-(((5-fluoro-4-oxo-2-(((tetrahydro-2H-pyran-4-yl)thio)methyl)-3,4-dihydroquinazolin-7-yl)oxy)methyl)piperidin-1-yl)methyl)azetidin-1-yl)isoindoline-1,3-dione] belongs less than 0.1 µM; to `O=C1CCC(Nc2ccc(N3CC(N4CCC(COc5cc(F)c6c(=O)[nH]c(CSC7CCOCC7)nc6c5)CC4)C3)cc2)C(=O)N1` (centres unmarked) [Example 51, 3-((4-(3-(4-(((5-fluoro-4-oxo-2-(((tetrahydro-2H-pyran-4-yl)thio)methyl)-3,4-dihydroquinazolin-7-yl)oxy)methyl)piperidin-1-yl)azetidin-1-yl)phenyl)amino)piperidine-2,6-dione], less than 0.1 µM; to `O=C1CCC(N2C(=O)c3ccc(C#CC4CCN(CCN5CCC(COc6cc(F)c7c(=O)[nH]c(CSC8CCOCC8)nc7c6)CC5)CC4)cc3C2=O)C(=O)N1` (centres unmarked) [Example 72, 2-(2,6-dioxopiperidin-3-yl)-5-((1-(2-(4-(((5-fluoro-4-oxo-2-(((tetrahydro-2H-pyran-4-yl)thio)methyl)-3,4-dihydroquinazolin-7-yl)oxy)methyl)piperidin-1-yl)ethyl)piperidin-4-yl)ethynyl)isoindoline-1,3-dione], less than 0.1 µM.
For `O=C1CCC(N2C(=O)c3cccc(N4CC(N5CCC(COc6cc(F)c7c(=O)[nH]c(CSC8CCOCC8)nc7c6)CC5)C4)c3C2=O)C(=O)N1` (centres unmarked) [Example 40, 2-(2,6-dioxopiperidin-3-yl)-4-(3-(4-(((5-fluoro-4-oxo-2-(((tetrahydro-2H-pyran-4-yl)thio)methyl)-3,4-dihydroquinazolin-7-yl)oxy)methyl)piperidin-1-yl)azetidin-1-yl)isoindoline-1,3-dione], the DC50 is less than 0.1 µM.
As for `O=C1CCC(N2C(=O)c3cccc(NCCCCC(=O)N4CCC(COc5cc(F)c6c(=O)[nH]c(CSC7CCOCC7)nc6c5)CC4)c3C2=O)C(=O)N1` (centres unmarked) [Example 12, 2-(2,6-dioxopiperidin-3-yl)-4-((5-(4-(((5-fluoro-4-oxo-2-(((tetrahydro-2H-pyran-4-yl)thio)methyl)-3,4-dihydroquinazolin-7-yl)oxy)methyl)piperidin-1-yl)-5-oxopentyl)amino)isoindoline-1,3-dione], the DC50 was less than 0.1 µM.
Still for that read-out and setting: to `O=C1CCC(Nc2ccc(N3CCN(CCN4CCC(COc5cc(F)c6c(=O)[nH]c(CSC7CCOCC7)nc6c5)CC4)CC3)c(C(F)(F)F)c2)C(=O)N1` (centres unmarked) [Example 50, 3-((4-(4-(2-(4-(((5-fluoro-4-oxo-2-(((tetrahydro-2H-pyran-4-yl)thio)methyl)-3,4-dihydroquinazolin-7-yl)oxy)methyl)piperidin-1-yl)ethyl)piperazin-1-yl)-3-(trifluoromethyl)phenyl)amino)piperidine-2,6-dione] belongs less than 0.1 µM.
Still for that read-out and setting: in the case of `O=C1CCC(Nc2ccc(N3C4CC3CN(CCN3CCC(COc5cc(F)c6c(=O)[nH]c(CSC7CCOCC7)nc6c5)CC3)C4)cc2)C(=O)N1` (centres unmarked) [Example 71, 3-((4-(3-(2-(4-(((5-fluoro-4-oxo-2-(((tetrahydro-2H-pyran-4-yl)thio)methyl)-3,4-dihydroquinazolin-7-yl)oxy)methyl)piperidin-1-yl)ethyl)-3,6-diazabicyclo[3.1.1]heptan-6-yl)phenyl)amino)piperidine-2,6-dione] it was less than 0.1 µM.
Same read-out and setting: in the case of `O=C1CCN(c2cccc(C#CCN3CCC(COc4cc(F)c5c(=O)[nH]c(CSC6CCOCC6)nc5c4)CC3)c2)C(=O)N1` [Example 33, 1-(3-(3-(4-(((5-fluoro-4-oxo-2-(((tetrahydro-2H-pyran-4-yl)thio)methyl)-3,4-dihydroquinazolin-7-yl)oxy)methyl)piperidin-1-yl)prop-1-yn-1-yl)phenyl)dihydropyrimidine-2,4(1H,3H)-dione] it was less than 0.1 µM; in that of `O=C1CCC(N2C(=O)c3ccc(/C=C/CN4CCC(COc5cc(F)c6c(=O)[nH]c(CSC7CCOCC7)nc6c5)CC4)cc3C2=O)C(=O)N1` (centres unmarked) [Example 43, (E)-2-(2,6-dioxopiperidin-3-yl)-5-(3-(4-(((5-fluoro-4-oxo-2-(((tetrahydro-2H-pyran-4-yl)thio)methyl)-3,4-dihydroquinazolin-7-yl)oxy)methyl)piperidin-1-yl)prop-1-en-1-yl)isoindoline-1,3-dione], less than 0.1 µM.
In the case of `O=C1CCC(N2Cc3cc(N4CCN(CCN5CCC(COc6cc(F)c7c(=O)[nH]c(CSC8CCOCC8)nc7c6)CC5)CC4)ccc3C2=O)C(=O)N1` (centres unmarked) [Example 59, 3-(5-(4-(2-(4-(((5-fluoro-4-oxo-2-(((tetrahydro-2H-pyran-4-yl)thio)methyl)-3,4-dihydroquinazolin-7-yl)oxy)methyl)piperidin-1-yl)ethyl)piperazin-1-yl)-1-oxoisoindolin-2-yl)piperidine-2,6-dione], the DC50 is less than 0.1 µM.

The target of another assay is T2, HiBiT tagged PARP14 (Homo sapiens, UniProt Q460N5).
T2 construct: engineered to contain a HiBiT tag on both alleles of the PARP14 gene; endogenous in cells; host or cells: Jurkat cells stably transfected with LgBiT (Promega), PARP14 locus edited by CRISPR/Cas9
T2 sequence (Q460N5 whole entry): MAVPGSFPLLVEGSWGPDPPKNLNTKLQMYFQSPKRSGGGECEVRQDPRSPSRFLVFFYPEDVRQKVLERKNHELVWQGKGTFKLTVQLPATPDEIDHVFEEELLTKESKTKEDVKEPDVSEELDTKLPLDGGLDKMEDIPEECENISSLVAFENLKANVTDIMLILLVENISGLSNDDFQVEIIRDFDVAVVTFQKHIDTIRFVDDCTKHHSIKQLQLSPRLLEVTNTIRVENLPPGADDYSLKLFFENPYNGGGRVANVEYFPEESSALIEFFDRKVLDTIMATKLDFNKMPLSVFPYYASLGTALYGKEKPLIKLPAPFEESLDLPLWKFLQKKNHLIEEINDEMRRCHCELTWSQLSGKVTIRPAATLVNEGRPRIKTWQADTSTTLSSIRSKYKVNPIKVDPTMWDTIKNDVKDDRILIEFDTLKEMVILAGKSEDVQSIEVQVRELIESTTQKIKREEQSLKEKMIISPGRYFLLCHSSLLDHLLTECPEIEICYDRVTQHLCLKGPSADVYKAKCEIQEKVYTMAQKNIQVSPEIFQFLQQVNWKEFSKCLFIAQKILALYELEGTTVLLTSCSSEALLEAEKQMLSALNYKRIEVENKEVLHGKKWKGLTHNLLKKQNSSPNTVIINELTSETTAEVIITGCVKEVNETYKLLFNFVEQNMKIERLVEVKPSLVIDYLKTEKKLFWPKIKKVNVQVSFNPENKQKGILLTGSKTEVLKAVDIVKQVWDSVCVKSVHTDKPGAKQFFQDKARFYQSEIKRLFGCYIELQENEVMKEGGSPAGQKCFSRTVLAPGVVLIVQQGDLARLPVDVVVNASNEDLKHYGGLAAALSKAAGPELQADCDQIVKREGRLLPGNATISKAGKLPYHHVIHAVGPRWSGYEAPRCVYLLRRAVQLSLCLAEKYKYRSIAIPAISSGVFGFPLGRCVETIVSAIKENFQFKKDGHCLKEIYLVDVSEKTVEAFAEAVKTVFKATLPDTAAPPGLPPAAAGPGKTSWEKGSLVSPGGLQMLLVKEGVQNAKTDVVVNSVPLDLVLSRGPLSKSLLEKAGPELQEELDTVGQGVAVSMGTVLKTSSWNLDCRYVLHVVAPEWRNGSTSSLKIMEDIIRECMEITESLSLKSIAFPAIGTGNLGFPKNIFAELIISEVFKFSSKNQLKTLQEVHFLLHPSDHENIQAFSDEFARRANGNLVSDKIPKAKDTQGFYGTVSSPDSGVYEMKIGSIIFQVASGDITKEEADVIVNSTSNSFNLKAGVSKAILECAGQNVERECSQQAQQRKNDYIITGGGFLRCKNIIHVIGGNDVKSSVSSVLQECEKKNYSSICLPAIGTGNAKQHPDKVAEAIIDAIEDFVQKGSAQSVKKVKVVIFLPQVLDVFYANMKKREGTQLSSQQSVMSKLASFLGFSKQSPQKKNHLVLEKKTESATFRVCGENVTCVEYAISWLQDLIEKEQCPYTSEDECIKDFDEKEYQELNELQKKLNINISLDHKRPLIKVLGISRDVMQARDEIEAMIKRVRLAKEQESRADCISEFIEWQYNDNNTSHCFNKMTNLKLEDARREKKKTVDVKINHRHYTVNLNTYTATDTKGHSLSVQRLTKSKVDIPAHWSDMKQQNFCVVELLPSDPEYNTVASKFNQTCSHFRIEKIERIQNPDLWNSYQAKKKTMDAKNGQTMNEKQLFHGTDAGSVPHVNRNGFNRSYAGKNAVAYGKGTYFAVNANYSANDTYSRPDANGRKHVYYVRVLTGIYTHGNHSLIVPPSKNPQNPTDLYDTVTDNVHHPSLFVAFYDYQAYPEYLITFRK
Nature of the assay: HiBiT assay for the degradation of PARP14 (HiBiT tagged PARP14 in LgBiT expressing Jurkat cells, 2 or 24 hours). The assay is classed as cell-based. Conditions: Assay B (Example B): HiBiT tagged PARP14 degradation in LgBiT expressing Jurkat cells, read-out: DC50. Summed up: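 Luminescence from HiBiT–LgBiT complementation served as proxy for endogenous PARP14 level in edited LgBiT Jurkat cells (5,000/well). After 2 or 24 h compound exposure at 37 °C, signal read with Live Cell Substrate, expressed as % of 0.1% DMSO control, and fitted (4-parameter, free Hill) for DC50.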
In general terms: HiBiT is a short tag that completes a luciferase, so light tracks the accessible tagged protein.
Consider `O=C1CCC(Nc2cc(F)c(N3CCC(N4CC(N5CCC(COc6cc(F)c7c(=O)[nH]c(CSC8CCOCC8)nc7c6)CC5)C4)CC3)cc2F)C(=O)N1` (centres unmarked) [Example 218, 3-((2,5-difluoro-4-(4-(3-(4-(((5-fluoro-4-oxo-2-(((tetrahydro-2H-pyran-4-yl)thio)methyl)-3,4-dihydroquinazolin-7-yl)oxy)methyl)piperidin-1-yl)azetidin-1-yl)piperidin-1-yl)phenyl)amino)piperidine-2,6-dione], for which the DC50 was less than 0.03 µM.
Same read-out and setting: in the case of `[2H]C1([2H])N(CCN2CCC(COc3cc(F)c4c(=O)[nH]c(CSC5CCOCC5)nc4c3)CC2)C([2H])([2H])C([2H])([2H])N(c2ccc(NC3CCC(=O)NC3=O)cc2)C1([2H])[2H]` (centres unmarked) [Example 131, 3-((4-(4-(2-(4-(((5-fluoro-4-oxo-2-(((tetrahydro-2H-pyran-4-yl)thio)methyl)-3,4-dihydroquinazolin-7-yl)oxy)methyl)piperidin-1-yl)ethyl)piperazin-1-yl-2,2,3,3,5,5,6,6-d8)phenyl)amino)piperidine-2,6-dione] it was less than 0.03 µM.

The values are drawn from US20240101540A1, “TARGETED PROTEIN DEGRADATION OF PARP14 FOR USE IN THERAPY” (Ribon Therapeutics, Inc., priority 2022, published 2024).
